Experimental data reported in patent US20230255954A1, “INTERLEUKIN 33 (IL-33) INHIBITION FOR TREATMENT OF CANCER, FIBROSIS AND INFLAMMATION” (The General Hospital Corporation, priority 2020, published 2023).

Experiments:
Assay type in all cases: cell-based, mouse
[1] = tested on: Il33 expression induced by Poly (I:C) in Pam212 cells; test: Il33 RNA by qPCR in Poly (I:C)-treated Pam212 cells
Protocol: (§1) Pam212 cells were grown at 37° C. in DMEM (Thermo Fisher Scientific, Waltham, Mass., catalog no. 11995065) supplemented with 10% fetal bovine serum (Thermo Fisher Scientific, catalog no. 26140079), 1× penicillin-streptomycin-glutamine (Thermo Fisher Scientific, catalog no. 10378016), 1×MEM non-essential amino acids solution (Thermo Fisher Scientific, catalog no. 11140050), 1×HEPES (Thermo Fisher Scientific, catalog no. 15630080) and 0.1% 2-Mercaptoethanol (Thermo Fisher Scientific, catalog no. 21985023). […]
(§2) Mouse dorsal skin samples were homogenized and lysed in RLT lysis solution (QIAGEN, catalog no. 79216)/0.1% MeOH using Mini-BeadBeater-8 (BioSpec Products, Inc., Bartlesville, Okla.). Total RNA was extracted using an RNeasy micro kit and quantified using NanoDrop ND-1100 (NanoDrop Technologies, Wilmington, Del.). cDNA samples were synthesized from 1 μg of total RNA using Invitrogen SuperScripts III Reverse Transcriptase (Thermo Fisher Scientific, catalog no. 18080085). Expression levels of all cDNA samples were determined with LightCycler 480 system (Roche Molecular Systems Inc., Pleasanton, Calif.) using TaqMan Universal Master Mix II (Thermo Fisher Scientific, catalog no. 44-400-40). […]

[2] = tested on: endogenous Il33 expression in PyMT breast cancer cell line; test: Endogenous Il33 RNA in PyMT breast cancer cell line
Protocol: as §1, §2

[3] = tested on: IL-33 protein in PyMT cells; test: IL-33 protein levels in PyMT cells (western blot); conditions: dose range
Protocol: Pam212 cells were grown at 37° C. in DMEM (Thermo Fisher Scientific, Waltham, Mass., catalog no. 11995065) supplemented with 10% fetal bovine serum (Thermo Fisher Scientific, catalog no. 26140079), 1× penicillin-streptomycin-glutamine (Thermo Fisher Scientific, catalog no. 10378016), 1×MEM non-essential amino acids solution (Thermo Fisher Scientific, catalog no. 11140050), 1×HEPES (Thermo Fisher Scientific, catalog no. 15630080) and 0.1% 2-Mercaptoethanol (Thermo Fisher Scientific, catalog no. 21985023). PyMT cell lines (derived from a primary breast tumor of MMTV-PyMrg mouse on a C57BL/6 background) were grown at 37° C. in RPMI Medium 1640 (Thermo Fisher Scientific, catalog no. 11875093) supplemented with 10% fetal bovine serum, 1× penicillin-streptomycin-glutamine and 0.1% 2-Mercaptoethanol. IL-33 promoter-luci vector (GeneCopoeia, Rockville, Md., catalog no. MPRM3494-PG02) or Control-luci vector (deletion form of IL-33 promoter region from IL-33 promoter-luci vector) or Poly (I:C) (Invivogen, San Diego, Calif., catalog no. tlrl-pic) in Pam212 cells were performed using Lipofectamine 2000 (Thermo Fisher Scientific, catalog no. 11668019) according to the manufacturer's instructions.
Cell lysates were prepared in LIPA buffer (Thermo Fisher Scientific, catalog no. 89900) consisting of 1× protease inhibitor cocktail, EDTA-free (Thermo Fisher Scientific, catalog no. A32955). […]

p-IRF3 = test: Poly (I:C) induced p-IRF3 expression in Pam212 cells; conditions: Pam212 cells with Poly (I:C)
Protocol: Cell lysates were prepared in LIPA buffer (Thermo Fisher Scientific, catalog no. 89900) consisting of 1× protease inhibitor cocktail, EDTA-free (Thermo Fisher Scientific, catalog no. A32955). Mice tissues were meshed and lysed by 0.1% TWEEN-(Millipore Sigma, catalog no. P1379) in PBS. Mice tissues were frozen by liquid nitrogen and thaw by incubation at 37° C. for further lysis. Cell lysates were sonicated for […], and then they were centrifugated at 13,200 rpm. After checking the protein concentration of each sample, the same amount of proteins was loaded into Mini-PROTEIN TGX™ Gels (BIO-RAD, Hercules, Calif., catalog no. 456-1083 or 456-1086) with 1× Tris/Glycine/SDS buffer (BIO-RAD, catalog no. 1610732). A few minutes later (according to protein size), they were transferred to Immobilon-P membrane (Millipore Sigma, catalog no. IPVH00010) with Transfer buffer (Boston Bioproducts, Ashland, Mass., catalog no. BP-190). Then, they were incubated 3% bovine serum albumin (Thermo Fisher Scientific, catalog no. BP1600) or 5% Skim milk (BD biosciences, San Jose, Calif., catalog no. 232100) in 1× Tris-Buffered Saline (Boston Bioproducts, catalog no. BM301X) containing 0.1% TWEEN, called TBS-T for 30 min. After the membrane was washed with TBS-T, they were subjected to immunoblot with proper antibodies for overnight at 4° C. […]

[4] = tested on: IRF3 nuclear translocation; test: Nuclear fractionation assay, IRF3 in poly (I:C) treated Pam212 cells
Protocol: Pam212 cell line was transfected with poly (I:C) using Lipofectamine 2000 according to the manufacturer's instructions. After 8 hours, cells were lysed using Nuclear Extraction Kit (Novus biologicals, Littleton, Colo., catalog no. NBP2-29447). Briefly, cells were washed with 1×PBS supplemented with PMSF (Novus biologicals, catalog no. KC-407). Cells were centrifuged for 5 min at 1,000 rpm. Cell pellets were resuspended in 1× cold hypotonic buffer (Novus biologicals, catalog no. KC-401) and incubated on ice for 15 min. After adding 10 μL of the 10% detergent solution (Novus biologicals, catalog no. KC-403), cell lysates were centrifuged 10 min at 14,000 rpm. The supernatants were kept as cytoplasmic fraction and the cell pellets were resuspended in 100 μL nuclear lysis buffer (Novus biologicals, catalog no. KC-402). Lysates from the pellets were sonicated for few seconds and incubated for 10 min at 4° C. Then, lysates were centrifuged at 14,000 rpm for 10 min. The supernatants were kept as nuclear fraction.
Next, to investigate the mechanism by which pitavastatin can block IL-33 expression, we first confirmed p-IRF3 expression level because IRF3 is a transcription factor of IL-33 expression. […] However, pitavastatin treatment with Poly (I:C) to Pam212 cells, level of p-IRF3 was decreased (FIG. 11A). […]

O=C(O)C[C@H](O)C[C@H](O)/C=C/c1c(C2CC2)nc2ccccc2c1-c1ccc(F)cc1 [pitavastatin]
Il33 RNA level [1]: decreased | endogenous Il33 RNA level [2]: inhibitory effect | endogenous IL-33 protein level [3]: decreased | level of p-IRF3 (p-IRF3): decreased | IRF3 localization by nuclear fractionation [4]: remains IRF3 in cytoplasm
